Measurements as given in patent US20250017914A1, “6-AZA-QUINOLINE DERIVATIVES AND RELATED USES” (Black Diamond Therapeutics, Inc., priority 2021, published 2025).

Molecular target: T1, BaF3 BRAF-KIAA1549 fusion cells (Homo sapiens, UniProt P15056)
T1 construct: The BRAF-KIAA1549 fusion mutant was subcloned into pMXs-IRES-Blasticidin (RTV-016, Cell Biolabs, San Diego, CA); No tag given; Q9HCM3 (UPF0606 protein KIAA1549)
Assay: BaF3 BRAF-KIAA1549 fusion cell proliferation assay (CellTiterGlo, 96 hours)
Type: cell-based
Details: Table A2
Summary of the method: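 BaF3 cells retrovirally transduced with BRAF-KIAA1549 fusion and blasticidin-selected were plated at 7×10^4 c/well in RPMI, 10% heat-inactivated FBS, 1% L-glutamine, and exposed to compound for 96 hours. Growth was read as ATP content by CellTiterGlo luminescence. IC50 was fitted by Levenberg-Marquardt, normalised to DMSO-treated cells.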

T1 sequence (P15056 whole entry, change not shown, the tested form may be a part): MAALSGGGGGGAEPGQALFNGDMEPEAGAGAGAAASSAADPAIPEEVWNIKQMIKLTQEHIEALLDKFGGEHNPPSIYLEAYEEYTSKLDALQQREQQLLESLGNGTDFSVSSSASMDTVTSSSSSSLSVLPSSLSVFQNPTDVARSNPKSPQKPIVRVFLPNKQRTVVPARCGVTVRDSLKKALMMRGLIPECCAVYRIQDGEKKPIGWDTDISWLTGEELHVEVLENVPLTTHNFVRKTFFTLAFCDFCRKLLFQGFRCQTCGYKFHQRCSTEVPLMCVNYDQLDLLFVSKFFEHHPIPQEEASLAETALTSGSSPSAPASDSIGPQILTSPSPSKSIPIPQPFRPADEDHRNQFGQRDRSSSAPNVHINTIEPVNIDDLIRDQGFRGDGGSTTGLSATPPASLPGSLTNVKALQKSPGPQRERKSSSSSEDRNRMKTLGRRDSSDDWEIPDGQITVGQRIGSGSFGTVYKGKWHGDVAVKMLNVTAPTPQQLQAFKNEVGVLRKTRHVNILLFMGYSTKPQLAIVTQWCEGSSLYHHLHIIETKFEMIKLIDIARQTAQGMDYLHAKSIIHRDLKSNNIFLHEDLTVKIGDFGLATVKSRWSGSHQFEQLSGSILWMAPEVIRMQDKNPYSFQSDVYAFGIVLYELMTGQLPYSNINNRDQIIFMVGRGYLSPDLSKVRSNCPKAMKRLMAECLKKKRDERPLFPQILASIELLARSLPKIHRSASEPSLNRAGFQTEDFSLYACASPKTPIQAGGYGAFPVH

| Compound | GI50 [nM] |
| --- | --- |
| CNc1cc2ncc(-c3cc(NC(=O)N(C)c4cc(C(F)F)ccn4)ccc3C)cc2cn1 [Compound 189, 1-(4-(difluoromethyl)pyridin-2-yl)-1-methyl-3-(4-methyl-3-(7-(methylamino)-1,6-naphthyridin-3-yl)phenyl)urea] | 100 to 500 |
| CNc1cc2ncc(-c3cc(NC(=O)N(C)c4ccnc(C(F)F)c4)cnc3C)cc2cn1 [Compound 190, 1-(2-(difluoromethyl)pyridin-4-yl)-1-methyl-3-(6-methyl-5-(7-(methylamino)-1,6-naphthyridin-3-yl)pyridin-3-yl)urea] | 100 to 500 |
| CNc1cc2ncc(-c3cc(NC(=O)c4cccc(C5(C#N)CC5)c4)cnc3C)cc2cn1 [Compound 191, 3-(1-cyanocyclopropyl)-N-(6-methyl-5-(7-(methylamino)-1,6-naphthyridin-3-yl)pyridin-3-yl)benzamide] | 20 to 100 |
| CNc1ncc2cc(-c3cc(NC(=O)c4ccnc(C(C)(C)C#N)c4)cnc3C)cnc2c1C#N [Compound 192, N-[5-[8-cyano-7-(methylamino)-1,6-naphthyridin-3-yl]-6-methyl-3-pyridyl]-2-(1-cyano-1-methyl-ethyl)pyridine-4-carboxamide] | 100 to 500 |
| CNc1cc2ncc(-c3cc(NC(=O)c4cccc(C(C)(C)C#N)c4)ccc3C)cc2cn1 [Compound 193, 3-(2-cyanopropan-2-yl)-N-(4-methyl-3-(7-(methylamino)-1,6-naphthyridin-3-yl)phenyl)benzamide] | < 20 |
| CNc1cc2ncc(-c3cc(NC(=O)c4c[nH]c5ccccc45)cnc3C)cc2cn1 [Compound 194, N-(6-methyl-5-(7-(methylamino)-1,6-naphthyridin-3-yl)pyridin-3-yl)-1H-indole-3-carboxamide] | 20 to 100 |
| CNc1cc2ncc(-c3cc(NC(=O)c4cnc5n4CCC(C)C5)ccc3C)cc2cn1 (centres unmarked) [Compound 195, 7-methyl-N-(4-methyl-3-(7-(methylamino)-1,6-naphthyridin-3-yl)phenyl)-5,6,7,8-tetrahydroimidazo[1,2-a]pyridine-3-carboxamide] | ≥ 500 |
| CNc1cc2ncc(-c3cc(C(=O)Nc4cccc(C(C)(C)C#N)c4)cnn3)cc2cn1 [Compound 196, N-(3-(2-cyanopropan-2-yl)phenyl)-6-(7-(methylamino)-1,6-naphthyridin-3-yl)pyridazine-4-carboxamide] | ≥ 500 |
| CNc1cc2ncc(-c3c(C)ncc(NC(=O)c4cc(C(C)(C)C#N)ccn4)c3Cl)cc2cn1 [Compound 197, N-[4-chloro-6-methyl-5-[7-(methylamino)-1,6-naphthyridin-3-yl]-3-pyridyl]-4-(1-cyano-1-methyl-ethyl)pyridine-2-carboxamide] | ≥ 500 |
| CNc1cc2ncc(-c3cc(NC(=O)c4cccc5c4CCCC5=O)cnc3C)cc2cn1 [Compound 198, N-(6-methyl-5-(7-(methylamino)-1,6-naphthyridin-3-yl)pyridin-3-yl)-5-oxo-5,6,7,8-tetrahydronaphthalene-1-carboxamide] | ≥ 500 |
| CNc1cc2ncc(-c3cc(NC(=O)c4cccc5c4CCCC5O)cnc3C)cc2cn1 (centres unmarked) [Compound 199, 5-hydroxy-N-(6-methyl-5-(7-(methylamino)-1,6-naphthyridin-3-yl)pyridin-3-yl)-5,6,7,8-tetrahydronaphthalene-1-carboxamide] | ≥ 500 |
| CNc1cc2ncc(-c3cc(NC(=O)c4cccc(C(C)(F)F)c4)cnc3C)cc2cn1 [Compound 200, 3-(1,1-difluoroethyl)-N-(6-methyl-5-(7-(methylamino)-1,6-naphthyridin-3-yl)pyridin-3-yl)benzamide] | < 20 |
| CNc1cc2ncc(-c3cc(NC(=O)c4cc(C(O)C5CC5)ccn4)cnc3C)cc2cn1 (centres unmarked) [Compound 201, 4-(cyclopropyl(hydroxy)methyl)-N-(6-methyl-5-(7-(methylamino)-1,6-naphthyridin-3-yl)pyridin-3-yl)picolinamide] | 20 to 100 |

Results, then the compound that gave them:

| GI50 [nM] | Compound |
| --- | --- |
| 20 to 100 | CNc1cc2ncc(-c3cc(NC(=O)c4cc(C(O)C(C)C)ccn4)cnc3C)cc2cn1 (centres unmarked) [Compound 202, 4-(1-hydroxy-2-methylpropyl)-N-(6-methyl-5-(7-(methylamino)-1,6-naphthyridin-3-yl)pyridin-3-yl)picolinamide] |
| < 20 | CNc1cc2ncc(-c3cc(NC(=O)c4cc(C(NC)C(F)(F)F)ccn4)ccc3C)cc2cn1 (centres unmarked) [Compound 203, N-(4-methyl-3-(7-(methylamino)-1,6-naphthyridin-3-yl)phenyl)-4-(2,2,2-trifluoro-1-(methylamino)ethyl)picolinamide] |
| < 20 | CNc1cc2ncc(-c3cc(NC(=O)c4cnc5n4CC(C)CC5)ccc3C)cc2cn1 (centres unmarked) [Compound 204, 6-methyl-N-(4-methyl-3-(7-(methylamino)-1,6-naphthyridin-3-yl)phenyl)-5,6,7,8-tetrahydroimidazo[1,2-a]pyridine-3-carboxamide] |
| 100 to 500 | CNc1cc2ncc(-c3cc(NC(=O)c4cnc5n4C(C)CCC5)ccc3C)cc2cn1 (centres unmarked) [Compound 205, 5-methyl-N-(4-methyl-3-(7-(methylamino)-1,6-naphthyridin-3-yl)phenyl)-5,6,7,8-tetrahydroimidazo[1,2-a]pyridine-3-carboxamide] |
| 20 to 100 | CNc1cc2ncc(-c3cc(NC(=O)c4cc(C(O)(O)C(F)(F)F)ccn4)cnc3C)cc2cn1 [Compound 206, N-(6-methyl-5-(7-(methylamino)-1,6-naphthyridin-3-yl)pyridin-3-yl)-4-(2,2,2-trifluoro-1,1-dihydroxyethyl)picolinamide] |
| ≥ 500 | CNc1cc2ncc(-c3cc(NC(=O)c4cnc5n4CCCC5)cnc3C)cc2cn1 [Compound 209, N-(6-methyl-5-(7-(methylamino)-1,6-naphthyridin-3-yl)pyridin-3-yl)-5,6,7,8-tetrahydroimidazo[1,2-a]pyridine-3-carboxamide] |
| ≥ 500 | CNc1cc2ncc(-c3cc(NC(=O)c4cccc(C(O)C(F)(F)F)n4)cnc3C)cc2cn1 (centres unmarked) [Compound 210, N-(6-methyl-5-(7-(methylamino)-1,6-naphthyridin-3-yl)pyridin-3-yl)-6-(2,2,2-trifluoro-1-hydroxyethyl)picolinamide] |
| ≥ 500 | CNc1cc2ncc(-c3cc(NC(=O)c4nccc5c4OCCC5O)cnc3C)cc2cn1 (centres unmarked) [Compound 211, 4-hydroxy-N-(6-methyl-5-(7-(methylamino)-1,6-naphthyridin-3-yl)pyridin-3-yl)-3,4-dihydro-2H-pyrano[2,3-c]pyridine-8-carboxamide] |
| ≥ 500 | CNc1cc2ncc(-c3cc(NC(=O)c4cccc5c4CCC5=O)cnc3C)cc2cn1 [Compound 212, N-(6-methyl-5-(7-(methylamino)-1,6-naphthyridin-3-yl)pyridin-3-yl)-1-oxo-2,3-dihydro-1H-indene-4-carboxamide] |
| ≥ 500 | CNc1cc2ncc(-c3cc(C(=O)Nc4cc(C(C)(C)C#N)ccn4)cnn3)cc2cn1 [Compound 213, N-(4-(2-cyanopropan-2-yl)pyridin-2-yl)-6-(7-(methylamino)-1,6-naphthyridin-3-yl)pyridazine-4-carboxamide] |
| 20 to 100 | CNc1cc2ncc(-c3cc(NC(=O)c4cnc5n4CCCC5C)ccc3C)cc2cn1 (centres unmarked) [Compound 214, 8-methyl-N-(4-methyl-3-(7-(methylamino)-1,6-naphthyridin-3-yl)phenyl)-5,6,7,8-tetrahydroimidazo[1,2-a]pyridine-3-carboxamide] |
| 20 to 100 | CNc1cc2ncc(-c3cc(NC(=O)c4cccc5c4NC(=O)C5(C)C)ccc3C)cc2cn1 [Compound 215, 3,3-dimethyl-N-(4-methyl-3-(7-(methylamino)-1,6-naphthyridin-3-yl)phenyl)-2-oxoindoline-7-carboxamide] |
| 100 to 500 | CNc1cc2ncc(-c3cc(NC(=O)c4cnc5n4CCCC5)ccc3C)cc2cn1 [Compound 216, N-(4-methyl-3-(7-(methylamino)-1,6-naphthyridin-3-yl)phenyl)-5,6,7,8-tetrahydroimidazo[1,2-a]pyridine-3-carboxamide] |
| 20 to 100 | CNc1cc2ncc(-c3cc(NC(=O)c4ccnc(C(C)(C)C#N)c4)c(F)cc3C)cc2cn1 [Compound 217, 2-(2-cyanopropan-2-yl)-N-(2-fluoro-4-methyl-5-(7-(methylamino)-1,6-naphthyridin-3-yl)phenyl)isonicotinamide] |
| 20 to 100 | CNc1cc2ncc(-c3cc(NC(=O)c4cc(C(N(C)C)C(F)(F)F)ccn4)ccc3C)cc2cn1 (centres unmarked) [Compound 218, 4-(1-(dimethylamino)-2,2,2-trifluoroethyl)-N-(4-methyl-3-(7-(methylamino)-1,6-naphthyridin-3-yl)phenyl)picolinamide] |
| ≥ 500 | CNc1cc2ncc(-c3cc(NC(=O)c4cccc5c4CCC5O)cnc3C)cc2cn1 (centres unmarked) [Compound 219, 1-hydroxy-N-(6-methyl-5-(7-(methylamino)-1,6-naphthyridin-3-yl)pyridin-3-yl)-2,3-dihydro-1H-indene-4-carboxamide] |
| 20 to 100 | CNc1cc2ncc(-c3cc(NC(=O)c4cnc5n4CC(C(F)(F)F)CC5)ccc3C)cc2cn1 (centres unmarked) [Compound 220, N-(4-methyl-3-(7-(methylamino)-1,6-naphthyridin-3-yl)phenyl)-6-(trifluoromethyl)-5,6,7,8-tetrahydroimidazo[1,2-a]pyridine-3-carboxamide] |
| 20 to 100 | CNc1cc2ncc(-c3cc(NC(=O)c4ccnc(C5(F)CC5)c4)c(F)cc3C)cc2cn1 [Compound 221, N-(2-fluoro-4-methyl-5-(7-(methylamino)-1,6-naphthyridin-3-yl)phenyl)-2-(1-fluorocyclopropyl)isonicotinamide] |
| 20 to 100 | CNc1cc2ncc(-c3cc(NC(=O)c4ccnc(C(C)(C)F)c4)c(F)cc3C)cc2cn1 [Compound 222, N-(2-fluoro-4-methyl-5-(7-(methylamino)-1,6-naphthyridin-3-yl)phenyl)-2-(2-fluoropropan-2-yl)isonicotinamide] |
